These results are taken from patent US20220218679A1, “NOVEL COMPOUNDS AND PHARMACEUTICAL COMPOSITIONS THEREOF FOR THE TREATMENT OF INFLAMMATORY DISORDERS” (Galapagos NV, priority 2019, published 2022).

For series [1], the target named is T1, human IRAK-4 (Homo sapiens, UniProt Q9NWZ3).
T1 construct: purchased Carna Biosciences 09 145
T1 sequence (Q9NWZ3 1-460): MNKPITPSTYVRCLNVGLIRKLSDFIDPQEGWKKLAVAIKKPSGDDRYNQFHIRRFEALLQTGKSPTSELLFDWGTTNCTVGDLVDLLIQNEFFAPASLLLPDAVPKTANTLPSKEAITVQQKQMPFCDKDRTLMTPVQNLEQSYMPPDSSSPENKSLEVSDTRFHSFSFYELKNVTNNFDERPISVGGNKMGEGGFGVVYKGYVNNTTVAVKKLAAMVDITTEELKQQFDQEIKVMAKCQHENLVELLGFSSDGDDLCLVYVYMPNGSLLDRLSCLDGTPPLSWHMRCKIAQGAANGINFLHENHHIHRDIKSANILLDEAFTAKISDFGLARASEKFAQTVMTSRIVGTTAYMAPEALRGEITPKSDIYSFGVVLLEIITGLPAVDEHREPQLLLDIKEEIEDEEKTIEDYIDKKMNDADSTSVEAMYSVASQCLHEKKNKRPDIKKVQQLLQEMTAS
The series can be described thus: Phosphorylation IC50 determination for human IRAK-4 (ADP-Glo kinase assay). Type of series: biochemical. The conditions noted are these: RIP140 substrate, Km ATP, read-out: IRAK4 IC50. The protocol: 3.1. Phosphorylation IC50 Determination for Human IRAK-4
The phosphorylation of the substrate RIP140 (SEQ IDi1) by IRAK4 at Km ATP was detected with the ADP-Glo Kinase Assay (Promega, Cat #V9103), a luminescent kinase assay which measures the ADP formed from a kinase reaction. (Zegzouti et al., 2009) In a second step the kinase reaction is terminated and all the remaining ATP was depleted. In a final step the ADP was converted into ATP and this newly synthesized ATP was measured by using a luciferase/luciferin reaction with a luminescent reader. The luminescent signal positively correlated with kinase activity, in particular kinase inhibition giving a decrease of the luminescent signal.
For the semi-automated assay, the positive control (100% inhibition) was prepared by diluting 10 mM staurosporine stock mixture (20 μL) in water (3.8 mL) and DMSO (180 μL), thus resulting in a […] staurosporine solution at 1% DMSO (final concentration after further dilution in the kinase reaction).
For the automated assay, no pre-dilution of the 10 mM staurosporine stock was made. 10 mM staurosporine was spotted directly in the assay plate using acoustic dispensing and complemented with DMSO to result in a similar final concentration as mentioned above.
For the semi-automated assay, the negative control (0% inhibition) was prepared by mixing water (3.8 mL) and DMSO (200 μL) resulting in a final concentration of 1% DMSO after further dilution in the kinase reaction. For the automated assay no pre-dilution of DMSO was done. 100% DMSO was spotted directly on the assay plate.
The assay buffer solution was prepared at a concentration corresponding to 5 fold the final (most diluted) assay concentration by mixing a solution of 125 mM TRIS pH 7.5+0.05% Triton X-100+2.5 mM EGTA (5.27 mL) with 1M MgCl2 (72 μL), 1M DTT (57.6 μL), and 200 mM MnCl2 (360 μL).
For example, for the semi-automated method, the enzyme-substrate mixture was prepared by mixing water (3999 μL), assay buffer solution (1380 μL), 1 mM RIP140 (138 μL—SEQ ID1), and 200 ng/mL IRAK 4 (3.45 μL Carna Biosciences, 09 145).
For semi-automated method, the ATP mixture was prepared at a concentration corresponding to 2.5 fold the final (most diluted) assay concentration of the semi-automated method and 1.5 fold the final (most diluted) assay concentration of the automated method. For example, for the semi-automated method, the ATP mixture was prepared by mixing water (4126 μL), assay buffer solution (1380 μL), and 10 mM ATP (13.80 μL).
The assay was performed either in a semi-automated or fully automated manner. The assay volume and the incubation time of the ADP detection were different accordingly the method used.
3.1.3.1. Semi-Automated Assay
The compounds were prepared as a serial dilution of 10 point dose responses with 1/5 dilution steps in 100% DMSO starting from 2 mM highest concentration, diluted 1/20 in water. 1 μL was transferred dry to the assay plates.
On each assay plate 32 wells of each control (positive & negative) were added, followed by 2 μL enzyme-substrate mixture.
The reaction was started by adding 2 μL diluted ATP (final concentration Km ATP) on the assay plates. Plates were centrifuged for a few seconds at 1000 rpm followed by an incubation at r.t. for 120 min.
The reactions were stopped and the unconsumed ATP was depleted by adding 5 μL ADP-glo Reagent (Promega, Cat #V9103) to the reaction. The plates were quickly centrifuged at 1000 rpm and incubated at r.t. for 40 min corresponding to full ATP depletion.
The ADP was converted back to ATP and luciferase and luciferin were introduced to detect ATP by adding 10 μL kinase detection reagent (Promega, Cat #V9103) to the reaction. The plates were centrifuged for a few seconds at 1000 rpm and incubated at r.t. for a further 30 min.
Luminescent read out was performed on an Envision luminescent reader (Perkin Elmer). […]
For orientation: In ADP-Glo the light output rises with the ADP produced.

A short description of series [2]: Thermodynamic solubility. The series is classed as physicochemical. The conditions noted are these: 37 °C, thermodynamic from solid. An excerpt: 4.2. Thermodynamic Solubility
Poor solubility, in particular poor thermodynamic solubility can limit the absorption of compounds from the gastrointestinal tract which in turn may reduce oral bioavailability.
Thermodynamic solubility investigates the solubility of a compound as a saturated solution in equilibrium, by opposition to kinetic solubility, which measures the solubility of a metastable solution where supersaturation may occur and provide over estimation of the actual solubility of the compound. (Klein, 2010)
4.2.2. Thermodynamic Solubility—Protocol 2
In a 8 mL glass vial, 1-2 mg of dry matter of compound were added and stirred with the suitable buffers (Fed State Simulated Intestine Fluid, FeSSIF, or Fasted State Simulated Intestine Fluid, FaSSIF, or Fasted State Simulated Gastric Fluid, FaSSGF, or phosphate buffer pH 7.4) for 24 h at r.t. (for the buffer pH 7.4) or 37° C. (for the GI fluids). The concentration of the mixture was 1 mg/mL.
A volume of 1000 μL were sampled, centrifuged for 10 min at 10 000 rpm and 500 μL of the supernatant were filtered on captiva plate. The samples were diluted in duplicates in DMSO (F100 and F10). Then, a final dilution (F100) in 80/20 H2O/MeCN containing the internal standard (warfarin) was used for LCMS-MS analysis.
A standard curve was made starting from a 40,000 ng/mL stock in DMSO, freshly prepared from dry matter. Then, successive concentrations at 15,000, 11,000, 6,000, 2,500, 1,000, 375, 150 and 75 ng/mL in DMSO were prepared.
Three quality control samples were made: one of 10,000, 1,500 and 200 ng/mL in DMSO, also starting from the DMSO working stock solution at 40,000 ng/mL.
The standard curve and quality controls were diluted a F100 in 80/20 H2O/MeCN (with internal standard) and analyzed on LC/MS-MS (API4000 or API5500).
The samples were analyzed on LC-MS with a flow rate of 0.6 mL/min. The mobile phase A was 0.1% formic acid in water and the mobile phase B was 0.1% formic acid in 90% MeCN and 10% of H2O. The sample was run under positive or negative ion spray on Pursuit C18—5 μm (2.0×20 mm) column, from Agilent.
The ratio analyte/internal standard peaks areas of the standard curve were plotted in a graph and a linear or polynomial of the second order equation was used to calculate the unknown concentrations of the test compound.
Solubility values were reported in μg/mL.

Series [3] relates to CL097 triggered IFNα release in human whole blood. Nature of the series: Ex vivo human IFNα release inhibition (human whole blood assay). Type of series: cell-based. Conditions: Homo sapiens, CL097 2 μg/mL, 3 h 30 min at 37° C. An excerpt: (§1) 4.10.1. Ex Vivo Human IFNα and TNFα Release Inhibition (Human Whole Blood Assay)
(§2) The aim of the assay is to evaluate the activity of compounds of the invention on the activated TLR/IRAK-4 pathway in an ex vivo human whole blood setting. Toll-like receptors (TLRs) are pattern recognition receptors that recognize a wide variety of microbial molecules, called pathogen-associated molecular patterns (PAMPs). Human TLR7 and TLR8 recognize imidazoquinoline compounds (e.g., CL097—CAS n #1026249-18-2) and single stranded RNAs as their natural ligands. Activation of TLRs leads to the production of several cytokines (e.g., IFNα, TNFα, IL-8, IL-6) by the TLR agonist-treated cells, whereas IRAK4 leads to the production of IFNα. Cytokine release is used as readout in this assay and represents a measure for the level of inhibition of the TLR/IRAK-4 pathway by the tested compound. It should be noted that in the context of the complete organism, other sources for these cytokines exist that are not dependent on the TLR/IRAK-4 pathway, such as e.g., macrophages (upon activation of the Fcγ receptor (Yan et al., 2012)) or T cells (upon activation of the T cell receptor (Brehm et al., 2005)).
(§3) 4.10.1.1. Experimental Design
(§4) Blood was collected from healthy volunteers into lithium heparin tubes by venipuncture, then gently inverted several times to prevent clotting and incubated for at least 15 min at 37° C. on a rocking mixer shaker. Then, 100 μL of blood was dispensed into polypropylene 96-well microplate and pre-incubated in duplicate with 0.3% DMSO or test compound at different concentrations (from 30 to 0.01 μM, 3-fold dilutions to get 0.3% DMSO at the final) for 15 min at 37° C. After this pre-incubation, blood was triggered with CL097 (2 μg/mL from 1 mg/mL solution in water; InvivoGen, tlrl-c97) for 3 h 30 min at 37° C. Microtubes were centrifuged at 5000×g for 10 min at 4° C. and approximately 40 μL of plasma were collected into a polystyrene 96-well plate. Plasma could be analyzed freshly, within 30 min after triggering, or frozen at −80° C. Finally, the quantification of TNFα and IFNα were performed in the plasma using AlphaLISA Kit for TNFα and IFNα according to the manufacturer's instructions and read on the Ensight (PerkinElmer).
A standard curve was created by plotting on log-log the mean […] on the y-axis against the concentration on the x-axis and a 4-parameters logistic regression (4PL) was made through the points. For each blood sample, the IFNα concentrations of the samples were determined from the fit. Data were then expressed as a percentage of inhibition (PIN) for each replicate using the formula:
With mean IFNα with CL097=mean IFNα concentration of replicate samples triggered with CL097; IFNαsample1=IFNα concentration of sample 1; mean IFNα with vehicle=mean IFNα concentration of replicate samples treated with vehicle.
(§5) Curve fitting for pIC50 determination were generated using mean PIN±sem. Graphs and pIC50 calculations were derived using Prism 5.03 software (GraphPad).

Series [4] concerns CL097 triggered TNFα release in human whole blood. Nature of the series: Ex vivo human TNFα release inhibition (human whole blood assay). The series is classed as cell-based. The conditions noted are these: Homo sapiens, CL097 2 μg/mL, 3 h 30 min at 37° C.
From the text: as §1, §2, §3, §4
For each blood sample, the TNFα concentrations of the samples were determined from the fit. Data were then expressed a percentage of inhibition PIN for each replicate using the formula:
With mean TNFα with CL097=mean TNFα concentration of replicate samples triggered with CL097; TNFαsample1=TNFα concentration of sample 1; mean TNFα with vehicle=mean TNFα concentration of replicate samples treated with vehicle.
as §5

Molecules are shown by their SMILES. Read-outs that look alike come from different tables or passages of the source.

One may read the IC50 as the concentration that gives 50% inhibition.

Regarding `CNC(=O)c1cn2nc(C3CCOCC3)cc2cc1NC(=O)c1cccc(C(F)(F)F)n1` [Compound 14, N-methyl-2-tetrahydropyran-4-yl-5-[[6-(trifluoromethyl)pyridine-2-carbonyl]amino]pyrazolo[1,5-a]pyridine-6-carboxamide], the IC50 in series [1] was 5 to 10 nM. Besides, the solubility thermodynamic at 24 h in series [2] (Fasted State Simulated Gastric Fluid (FaSSGF), fassgf or other biorelevant, Fasted State Simulated Gastric Fluid, read-out: Tsol FaSSGF) is less than 0.75 µg/mL; in series [2] (Fasted State Simulated Intestine Fluid (FaSSIF), fassif, Fasted State Simulated Intestine Fluid, read-out: Tsol FaSSIF) it was less than 0.75 µg/mL.
Take `NC(=O)c1cn2nc(C3CCOCC3)cc2cc1NC(=O)c1cccc(C(F)(F)F)n1` [Compound 11, 2-tetrahydropyran-4-yl-5-[[6-(trifluoromethyl)pyridine-2-carbonyl]amino]pyrazolo[1,5-a]pyridine-6-carboxamide]: the IC50 in series [1] was 0.1 to 5 nM.
As for `COc1cn2nc(CCS(C)(=O)=O)cc2cc1NC(=O)c1cccn(C2CC2)c1=O` [Compound 6, 1-cyclopropyl-N-[6-methoxy-2-(2-methylsulfonylethyl)pyrazolo[1,5-a]pyridin-5-yl]-2-oxo-pyridine-3-carboxamide], the IC50 in series [1] lay in the range of 5 to 10 nM; in series [3], 500 to 1000 nM; in series [4] it was 0.1 to 500 nM.
